Experimental data from patent US20180057547A1, “DIAGNOSTIC AND THERAPEUTIC EPITOPE, AND TRANSGENIC PLANT” (OXFORD UNIVERSITY INNOVATION LIMITED, priority 1999, published 2018).

Tests used:
[1] = tested on: CD4 or CD8 depleted PBMC from coeliac disease subjects; assay: IFNγ ELISPOT with CD4 and CD8 magnetic bead depleted PBMC; assay type: cell-based, human
Protocol: Anti-CD4 or anti-CD8 coated magnetic beads (Dynal, Oslo, Norway) were washed four times with RPMI then incubated with PBMC in complete RPMI containing 10% heat inactivated human AB serum (5×10^6 cells/ml) for 30 minutes on ice. Beads were removed using a magnet and cells remaining counted. […] HLA-class II restriction of the immune response to tTG-treated A-gliadin 56-75 was established by incubating PBMC (5×10^6 cells/ml) with anti-HLA-DR (L243), -DQ (L2), and -DP (B7.21) monoclonal antibodies (10 μg/ml) at room temperature for one hour prior to the addition of peptide.

HLA-DQ2 = conditions: cited from earlier work
[2] = tested on: PBMC from coeliac volunteers; assay: Antagonism of A-gliadin 57-73 QE65 interferon gamma ELISPOT response (simultaneous addition of peptide); assay type: cell-based, human; conditions: peptides known to bind HLA-DQ2, 50 μg/ml plus A-gliadin 57-73 QE65 10 μg/ml
Protocol: Simultaneous addition of peptide (50 μg/ml) or buffer and A-gliadin 57-73 QE65 (10 μg/ml) in IFNgamma ELISPOT using PBMC from coeliac volunteers 6 days after commencing 3 day gluten challenge (n=5). Results were expressed as response with peptide plus A-G 57-73 QE65 (mean of duplicates) as % response with buffer plus A-G 57-73 QE65 (mean of 20 replicates). (See Table 9).

Sequence	spot forming cells per million CD8 depleted PBMC ([1]; Subject 4, tTG treated peptide 0.1 μM)	spot forming cells per million CD8 depleted PBMC ([1]; Subject 6, tTG treated peptide 0.1 μM)	cell subset mediating the IFNγ response ([1]; anti-CD4 and anti-CD8 magnetic bead depletion, two subjects)	binding to HLA-DQ2 (HLA-DQ2)	% Inhibit. of A-gliadin 57-73 QE65 interferon gamma ELISpot response [2] [%]	% Inhibit. of A-gliadin 57-73 QE65 interferon gamma ELISpot response ([2]; listed as HLA class 1 α 46-60)
LQLQPFPQPQLPYPQPQSFP [A-gliadin 56-75, 20mer of A-gliadin, used tTG-treated]	29 spot forming cells per million CD8 depleted PBMC	535 spot forming cells per million CD8 depleted PBMC	CD4 T cell-mediated			
IDVWLGGLLAENFLPY [TP, reference compound]				bind avidly to HLA-DQ2	31	
PRAPWIEQEGPEYW [HLA1a, reference compound]				bind avidly to HLA-DQ2	0	does not alter responses
